Biological target: T1, Human Recombinant Matriptase 2 (Homo sapiens, UniProt Q8IU80)
T1 construct: purchased Enzo Life Sciences (an in-house preparation was also used) ALX-201-752-1
T1 sequence (Q8IU80 1-811): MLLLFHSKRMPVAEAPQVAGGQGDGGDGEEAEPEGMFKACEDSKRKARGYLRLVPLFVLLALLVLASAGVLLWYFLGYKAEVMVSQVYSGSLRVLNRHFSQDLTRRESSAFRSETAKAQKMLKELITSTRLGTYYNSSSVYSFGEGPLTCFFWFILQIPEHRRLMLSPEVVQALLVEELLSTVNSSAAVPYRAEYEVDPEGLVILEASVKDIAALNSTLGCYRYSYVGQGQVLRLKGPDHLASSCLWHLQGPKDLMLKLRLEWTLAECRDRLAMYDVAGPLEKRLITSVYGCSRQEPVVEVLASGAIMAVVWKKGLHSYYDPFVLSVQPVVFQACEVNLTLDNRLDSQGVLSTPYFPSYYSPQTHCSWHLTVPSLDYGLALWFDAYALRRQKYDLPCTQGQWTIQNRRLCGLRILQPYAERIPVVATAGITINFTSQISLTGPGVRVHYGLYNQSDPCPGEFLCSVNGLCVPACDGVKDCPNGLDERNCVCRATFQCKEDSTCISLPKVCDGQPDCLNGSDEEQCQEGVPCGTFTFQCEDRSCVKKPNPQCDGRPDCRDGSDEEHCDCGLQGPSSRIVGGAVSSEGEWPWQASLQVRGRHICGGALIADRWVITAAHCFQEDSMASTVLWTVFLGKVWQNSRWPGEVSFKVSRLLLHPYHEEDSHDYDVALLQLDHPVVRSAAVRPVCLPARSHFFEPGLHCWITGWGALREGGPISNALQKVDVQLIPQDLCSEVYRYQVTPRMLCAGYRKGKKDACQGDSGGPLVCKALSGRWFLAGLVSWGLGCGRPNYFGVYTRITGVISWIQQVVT
Experiment: Matriptase 2 fluorescence based inhibition assay, Method A (100 mM TRIS pH 9, 1 mg/mL BSA)
Format: biochemical
Details: 1 uM compound; Assay Used = A; read-out: Mar-2 % inhibition at 1 uM
Procedure, shortened: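 Enzyme (7 nM commercial or 15 nM in-house) preincubated 30 min with compound in 100 mM TRIS pH 9, 1 mg/mL BSA, 1% DMSO at 25° C. Boc-Gln-Ala-Arg-AMC substrate at 100 μM; fluorescence (Ex 360/Em 480 nm) read 60 min later. Screened at 1 and 10 μM; IC50 from variable-slope sigmoidal fit.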

inhibition at 1 µM [%] | Compound
50 to 75 | COc1ccc2cc(Cn3c(C(=O)N[C@H]4CC[C@H](N)CC4)cc4ccc(C(=N)N)cc43)ccc2c1 [Compound I-408]
25 to 50 | N/C(=N/O)c1ccc2cc(C(=O)N[C@H]3CC[C@H](N)CC3)n(Cc3cccc4ccccc34)c2c1 [Compound I-400]

Same assay, conditions: 1 uM; Assay Used A; read-out: Mar-2 % inhibition at 1 uM

inhibition at 1 µM [%] | Compound
0 to 25 | CC(C)[C@@H](NC(=O)OC(C)(C)C)C(=O)O/N=C(\N)c1ccc2cc(C(=O)Nc3cccc(N4CCCC4)c3)n(Cc3ccc(C(N)=O)cc3)c2c1 [Compound I-157, (R)-tert-butyl (1-(((amino(1-(4-carbamoylbenzyl)-2-((3-(pyrrolidin-1-yl)phenyl)-carbamoyl)-1H-indol-6-yl)methylene)amino)oxy)-3-methyl-1-oxobutan-2-yl)carbamate]
0 to 25 | N=C(N)c1ccc2cc(C(=O)Nc3ccc(Cl)nc3)n(Cc3ccc(C(N)=O)cc3)c2c1 [Compound I-174]
0 to 25 | CN(C)C(=O)COc1cccc(NC(=O)c2cc3ccc(C(=N)N)cc3n2Cc2ccc(C(N)=O)cc2)c1 [Compound I-93]
0 to 25 | N=C(N)c1ccc2cc(C(=O)Nc3ccc(F)c(Br)c3)n(Cc3ccc(C(N)=O)cc3)c2c1 [Compound I-111]
0 to 25 | N=C(N)c1ccc2cc(C(=O)Nc3cccc(C(F)(F)F)c3)n(CCS(=O)(=O)c3ccccc3)c2c1 [Compound I-40, 6-Carbamimidoyl-1-(2-(phenylsulfonyl)ethyl)-N-(3-(trifluoromethyl)phenyl)-1H-indole-2-carboxamide]
0 to 25 | N=C(N)c1ccc2cc(C(=O)Nc3ccc(C(N)=O)cc3)n(CCc3ccccc3)c2c1 [Compound I-25]
0 to 25 | N=C(N)c1ccc2cc(C(=O)Nc3cccc(N4CC[C@H](O)C4)c3)n(Cc3ccc(C(N)=O)cc3)c2c1 [Compound I-128]
0 to 25 | N=C(N)c1ccc2cc(C(=O)Nc3cccc(N4CCCCC4)c3)n(Cc3ccc(C(N)=O)cc3)c2c1 [Compound I-110]
25 to 50 | N=C(N)c1ccc2cc(C(=O)Nc3ccc(N4CCC(F)(F)C4)cc3)n(Cc3ccc(C(N)=O)cc3)c2c1 [Compound I-97]
0 to 25 | N=C(N)c1ccc2cc(C(=O)N[C@@H](CO)c3ccccc3)n(Cc3ccc(C(N)=O)cc3)c2c1 [Compound I-85]
0 to 25 | CC(C)N1CC[C@H](NC(=O)c2cc3ccc(C(=N)N)cc3n2Cc2ccc(C(N)=O)cc2)C1 [Compound I-196]
0 to 25 | N=C(N)c1ccc2cc(C(=O)Nc3ccc(N4CCCC4)nc3)n(Cc3ccc(C(N)=O)cc3)c2c1 [Compound I-177]
0 to 25 | CCCOC(=O)NC(=N)c1ccc2cc(C(=O)Nc3cccc(N4CCCC4)c3)n(Cc3ccc(C(N)=O)cc3)c2c1 [Compound I-162]
0 to 25 | CCCCOC(=O)NC(=N)c1ccc2cc(C(=O)Nc3cccc(N4CCCC4)c3)n(Cc3ccc(C(N)=O)cc3)c2c1 [Compound I-160]
0 to 25 | N=C(N)c1ccc2cc(C(=O)NCC3CCOCC3)n(Cc3ccc(C(N)=O)cc3)c2c1 [Compound I-192]
0 to 25 | N=C(N)c1ccc2cc(C(=O)Nc3ccc(Br)cc3F)n(Cc3ccc(C(N)=O)cc3)c2c1 [Compound I-145]
0 to 25 | N=C(N)c1ccc2cc(C(=O)NCc3cccc(F)c3)n(Cc3ccc(C(N)=O)cc3)c2c1 [Compound I-76]
0 to 25 | N=C(N)c1ccc2cc(C(=O)Nc3ccc(Oc4ccccc4)cc3)n(Cc3ccc(C(N)=O)cc3)c2c1 [Compound I-65]
0 to 25 | N=C(N)c1ccc2cc(C(=O)Nc3ccc4ncsc4c3)n(Cc3ccc(C(N)=O)cc3)c2c1 [Compound I-88]
0 to 25 | Cc1ccnc(NC(=O)c2cc3ccc(C(=N)N)cc3n2Cc2ccc(C(N)=O)cc2)c1 [Compound I-176]

Continued, compound first:

Compound | inhibition at 1 µM [%]
N=C(N)c1ccc2cc(C(=O)N[C@H]3CC[C@H](N)CC3)n(CCc3ccccc3)c2c1 [Compound I-27] | 50 to 75
N=C(N)c1ccc2cc(C(=O)NC[C@H]3CCCNC3)n(CCS(=O)(=O)c3ccccc3)c2c1 [Compound I-51] | 25 to 50
N=C(N)c1ccc2cc(C(=O)N[C@H]3CC[C@H](N)CC3)n(Cc3ccc(C(F)(F)F)cc3)c2c1 [Compound I-4] | 25 to 50
CC1CCC(NC(=O)c2cc3ccc(C(=N)N)cc3n2CCS(=O)(=O)c2ccccc2)CC1 (stereo not drawn) [Compound I-46] | 0 to 25
N=C(N)c1ccc2cc(C(=O)NCC3CCC(F)(F)CC3)n(CCS(=O)(=O)c3ccccc3)c2c1 [Compound I-54] | 0 to 25
N=C(N)c1ccc2cc(C(=O)N[C@H]3CC[C@H](N)CC3)n(CCc3cccc(Br)c3)c2c1 [Compound I-31] | 25 to 50

Same assay, conditions: at 1 uM; Assay Used = A; read-out: Mar-2 % inhibition at 1 uM

inhibition at 1 µM [%] | Compound
0 to 25 | Cc1csc(NC(=O)c2cc3ccc(C(=N)N)cc3n2Cc2ccc(C(N)=O)cc2)n1 [Compound I-266]
0 to 25 | CNC(=O)c1ccc(Cn2c(C(=O)NC3CCC(C)CC3)cc3ccc(C(=N)N)cc32)cc1 (stereo not drawn) [Compound I-220, 6-Carbamimidoyl-1-(4-(methylcarbamoyl)benzyl)-N-(4-methylcyclohexyl)-1H-indole-2-carboxamide]
0 to 25 | N=C(N)c1ccc2cc(C(=O)N[C@H]3CCc4ccccc43)n(Cc3ccc(C(N)=O)cc3)c2c1 [Compound I-202]
0 to 25 | CCNC(=O)c1ccc(Cn2c(C(=O)NC3CCC(C)CC3)cc3ccc(C(=N)N)cc32)cc1 (stereo not drawn) [Compound I-221, 6-Carbamimidoyl-1-(4-(ethylcarbamoyl)benzyl)-N-(4-methylcyclohexyl)-1H-indole-2-carboxamide]
0 to 25 | CCNC(=O)c1ccc(Cn2c(C(=O)N3CCC(F)CC3)cc3ccc(C(=N)N)cc32)cc1 [Compound I-390]
0 to 25 | N=C(N)c1ccc2cc(C(=O)N3CCC(F)CC3)n(Cc3ccc(NC(=O)CCN)cc3)c2c1 [Compound I-373]
0 to 25 | N=C(N)c1ccc2cc(C(=O)NC34CC5CC(CC(C5)C3)C4)n(Cc3ccc(C(N)=O)cc3)c2c1 [Compound I-200]

More lines, now with the values behind:

Compound | inhibition at 1 µM [%]
N=C(N)c1ccc2cc(C(=O)N3CC[C@H](F)C3)n(Cc3ccc(C(F)(F)F)cc3)c2c1 [Compound I-279] | 0 to 25
CC(C)c1ccc(Cn2c(C(=O)N3CC[C@H](F)C3)cc3ccc(C(=N)N)cc32)cc1 [Compound I-293] | 0 to 25
N=C(N)c1ccc2cc(C(=O)N3CCC(F)(F)C3)n(Cc3cccc(NC(=O)CCN)c3)c2c1 [Compound I-369] | 0 to 25
N=C(N)c1ccc2c(Cl)c(C(=O)NCC3CCCCC3)n(Cc3ccc(C(N)=O)cc3)c2c1 [Compound I-213, 6-Carbamimidoyl-1-(4-carbamoylbenzyl)-3-chloro-N-(cyclohexylmethyl)-1H-indole-2-carboxamide] | 0 to 25
CCOC(=O)c1ccc(Cn2c(C(=O)N3CCC(CCN)CC3)c(N)c3ccc(C(=N)N)cc32)cc1 [Compound I-346] | 0 to 25
N=C(N)c1ccc2c(N)c(C(=O)N[C@H]3CC[C@H](NC(=O)O)CC3)n(Cc3ccc(Oc4ccccc4)cc3)c2c1 [Compound I-253, ((1r,4r)-4-(3-Amino-6-carbamimidoyl-1-(4-phenoxybenzyl)-1H-indole-2-carboxamido)-cyclohexyl) carbamic Acid] | 0 to 25
N=C(N)c1ccc2cc(C(=O)N3CCC(CF)CC3)n(Cc3ccc(OC(F)(F)F)cc3)c2c1 [Compound I-291] | 0 to 25
N=C(N)c1ccc2cc(C(=O)N3CCC(C(=O)NCCCN)CC3)n(CCc3ccccc3)c2c1 [Compound I-358] | 25 to 50
N=C(N)c1ccc2c(Cl)c(C(=O)NCC3CCCCC3)n(Cc3ccc(-c4ccccc4)cc3)c2c1 [Compound I-236] | 0 to 25
CC(C)CCn1c(C(=O)N2CCC(CCN)CC2)c(N)c2ccc(C(=N)N)cc21 [Compound I-345, 3-Amino-2-(4-(2-aminoethyl)piperidine-1-carbonyl)-1-isopentyl-1H-indole-6-carboximidamide] | 25 to 50
N=C(N)c1ccc2cc(C(=O)NC34CC5CC(CC(O)(C5)C3)C4)n(Cc3ccc(Oc4ccc(F)cc4)cc3)c2c1 [Compound I-244] | 25 to 50
N=C(N)c1ccc2cc(C(=O)N[C@H]3CC[C@H](N)CC3)n(Cc3cccc(NC(=O)C4CNC4)c3)c2c1 [Compound I-258, N-((1r,4r)-4-Aminocyclohexyl)-1-(3-(azetidine-3-carboxamido)benzyl)-6-carbamimidoyl-1H-indole-2-carboxamide] | 50 to 75
CC1CCC(NC(=O)c2c(Cl)c3ccc(C(=N)N)cc3n2Cc2ccc(-c3ccccc3)cc2)CC1 (stereo not drawn) [Compound I-237] | 0 to 25

Source: patent US12428415B2, “Matriptase 2 inhibitors and uses thereof” (Disc Medicine, Inc., priority 2018, dated 2025)
